Test results taken from patent US7501384B2, “Crystalline modification of the anhydrate of boscalid” (BASF Aktiengesellschaft, priority 2003, dated 2009).

Assay: Tank mixing compatibility: 5% suspension of water-dispersible granules in CIPAC D water mixed with 1% Solvesso 200, stored, solid residue on 75 μm sieve determined
Assay type: physicochemical
Experimental: Comparison of the Tank Mixing Compatibility: For this purpose, both water-dispersible granules of the above composition, comprising anhydrate of the compound of the formula I of modification I (formulation A), and water-dispersible granules of anhydrate of the compound of the formula I of modification II (formation B) were prepared. A 5% strength suspension of the respective water-dispersible granules in CIPAC D water (Ca^++/Mg^++ (4:1) hardness of 342 ppm and pH of from 6.0 to 7.0 was then prepared. This suspension was then mixed with 1% of Solvesso 200 (mixture of aromatic hydrocarbons) as a typical solvent for solvent-containing liquid formulations (e.g. EC). The corresponding spray liquor was then stored over a certain period at a certain temperature. For assessing the quality, the solid residue on a 75 μm sieve was determined after the storage.

O=C(Nc1ccccc1-c1ccc(Cl)cc1)c1cccnc1Cl [modification II, 2-chloro-N-(4′-chlorobiphenyl-2-yl)-nicotinamide]
crystal growth in the presence of solvents: scarcely any crystal growth
